The text below walks through data of ChEMBL document CHEMBL1201862, “PubChem BioAssay data set” (2004).

Activity calls are given as the source filed them. Cut-off read from the data, not from the text of the source, for most assays here: actives have a measured IC50 and inactives only a lower limit.

In one test the test system is INS1. The test is described as follows: INS-1E survival protection against cytokine death – cell-based, luminescence, retest, dose response (AID 449756).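 Note: cell death triggered by IL-1 beta plus TNF-alpha plus IFN-gamma mixture; protective hits raise ATP signal compared with cytokine alone wells.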 The note with it: Rattus norvegicus, INS1. In kind it is functional.
The target of test [1] is T1, Apoptotic protease-activating factor 1 (Homo sapiens, UniProt O14727).
T1 sequence (O14727 whole entry): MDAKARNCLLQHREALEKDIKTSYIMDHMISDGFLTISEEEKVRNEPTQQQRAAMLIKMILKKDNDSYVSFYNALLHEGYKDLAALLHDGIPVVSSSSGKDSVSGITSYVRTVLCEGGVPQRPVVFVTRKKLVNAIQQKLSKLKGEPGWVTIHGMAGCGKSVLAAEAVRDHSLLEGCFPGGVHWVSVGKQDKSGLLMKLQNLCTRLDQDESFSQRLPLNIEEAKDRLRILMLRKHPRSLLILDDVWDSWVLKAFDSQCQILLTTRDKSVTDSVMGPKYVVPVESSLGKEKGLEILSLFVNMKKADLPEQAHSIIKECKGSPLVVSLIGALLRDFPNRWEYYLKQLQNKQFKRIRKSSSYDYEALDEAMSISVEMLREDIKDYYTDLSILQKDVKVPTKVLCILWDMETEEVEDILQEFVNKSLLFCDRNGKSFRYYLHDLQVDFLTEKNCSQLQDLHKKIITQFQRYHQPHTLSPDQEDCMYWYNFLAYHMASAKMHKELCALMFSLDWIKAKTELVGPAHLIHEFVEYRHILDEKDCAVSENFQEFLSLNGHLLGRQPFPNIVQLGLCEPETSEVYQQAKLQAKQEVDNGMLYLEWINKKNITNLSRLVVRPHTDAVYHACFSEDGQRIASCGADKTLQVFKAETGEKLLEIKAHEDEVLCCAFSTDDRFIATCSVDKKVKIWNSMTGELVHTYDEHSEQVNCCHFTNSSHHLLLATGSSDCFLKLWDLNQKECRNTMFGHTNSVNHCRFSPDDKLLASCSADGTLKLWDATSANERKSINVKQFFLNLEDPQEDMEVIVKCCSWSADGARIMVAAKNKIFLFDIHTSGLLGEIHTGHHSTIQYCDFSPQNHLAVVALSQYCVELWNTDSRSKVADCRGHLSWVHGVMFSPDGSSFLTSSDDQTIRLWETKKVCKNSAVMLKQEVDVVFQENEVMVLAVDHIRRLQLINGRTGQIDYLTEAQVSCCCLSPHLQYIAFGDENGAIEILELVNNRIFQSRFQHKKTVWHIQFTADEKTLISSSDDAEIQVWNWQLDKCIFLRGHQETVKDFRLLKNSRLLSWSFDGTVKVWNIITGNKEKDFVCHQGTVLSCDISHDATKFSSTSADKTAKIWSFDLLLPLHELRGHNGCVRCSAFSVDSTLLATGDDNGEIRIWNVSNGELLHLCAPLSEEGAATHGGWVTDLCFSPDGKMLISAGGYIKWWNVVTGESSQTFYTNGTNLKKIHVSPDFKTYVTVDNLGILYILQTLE
The class given is functional.

The nature of test [2]: viability loss of HPDE-C7K cells – cell-based, fluorescence, HTS, primary screen (AID 431). In kind it is functional. The following applies: Homo sapiens.
Test [3] deals with T2, Tyrosine-protein phosphatase non-receptor type 22 (Homo sapiens, UniProt Q9Y2R2).
T2 sequence (Q9Y2R2 whole entry): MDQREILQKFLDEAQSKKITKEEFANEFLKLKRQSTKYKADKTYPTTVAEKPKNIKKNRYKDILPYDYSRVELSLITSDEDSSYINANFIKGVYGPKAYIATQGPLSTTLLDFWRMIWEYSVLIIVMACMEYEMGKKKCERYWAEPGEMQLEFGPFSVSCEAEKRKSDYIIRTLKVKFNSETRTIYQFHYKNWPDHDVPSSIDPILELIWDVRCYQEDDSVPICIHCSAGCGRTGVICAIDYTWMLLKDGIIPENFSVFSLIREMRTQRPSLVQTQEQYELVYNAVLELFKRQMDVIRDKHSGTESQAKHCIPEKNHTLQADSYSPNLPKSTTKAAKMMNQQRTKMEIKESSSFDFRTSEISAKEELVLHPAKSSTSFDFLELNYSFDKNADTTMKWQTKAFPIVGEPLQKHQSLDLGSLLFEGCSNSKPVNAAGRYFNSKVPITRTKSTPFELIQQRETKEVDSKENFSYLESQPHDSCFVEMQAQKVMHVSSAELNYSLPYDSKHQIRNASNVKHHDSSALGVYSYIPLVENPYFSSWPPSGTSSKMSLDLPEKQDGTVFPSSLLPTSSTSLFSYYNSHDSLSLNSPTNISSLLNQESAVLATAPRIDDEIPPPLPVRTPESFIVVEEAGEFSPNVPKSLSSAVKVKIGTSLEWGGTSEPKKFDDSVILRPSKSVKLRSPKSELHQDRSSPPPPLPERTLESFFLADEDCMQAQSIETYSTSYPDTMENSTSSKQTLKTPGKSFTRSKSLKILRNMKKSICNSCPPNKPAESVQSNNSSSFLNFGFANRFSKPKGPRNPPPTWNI
The test is described as follows: SAR LYP1 Fluorescent Assay using OMFP substrate for In Vitro dose response studies - Set 2. [Related pubchem assays (depositor defined):AID1779, AID1784, AID2140, AID449726, AID488869]. In kind it is functional.

Test [4] deals with T2, Tyrosine-protein phosphatase non-receptor type 22. The test is described as follows: SAR LYP1 Fluorescent Assay using OMFP substrate for In Vitro dose response studies - Set 3. [Related pubchem assays (depositor defined):AID1779, AID1784, AID2140, AID2686]. In kind it is functional.
For test [5], the target named is Voltage-gated N-type calcium channel alpha-1B subunit/Amyloid beta A4 precursor protein-binding family A member 1 (Homo sapiens, UniProt Q00975+Q02410). The class given is protein assay.
In test [6] the target is T2, Tyrosine-protein phosphatase non-receptor type 22. In kind it is functional.
Test [7] addresses T3, Tyrosine-protein phosphatase non-receptor type 7 (Homo sapiens, UniProt P35236).
T3 sequence (P35236 whole entry): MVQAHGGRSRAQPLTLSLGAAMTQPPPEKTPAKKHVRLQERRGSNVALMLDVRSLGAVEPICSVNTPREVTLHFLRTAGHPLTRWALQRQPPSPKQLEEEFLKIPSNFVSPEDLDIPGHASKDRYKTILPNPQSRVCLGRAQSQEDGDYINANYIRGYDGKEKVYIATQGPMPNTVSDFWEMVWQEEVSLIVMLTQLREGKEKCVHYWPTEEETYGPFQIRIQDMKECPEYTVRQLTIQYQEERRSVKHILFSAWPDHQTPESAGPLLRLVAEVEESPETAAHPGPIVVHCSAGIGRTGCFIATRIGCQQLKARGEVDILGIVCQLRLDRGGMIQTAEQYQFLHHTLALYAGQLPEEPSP
In words: inhibition of hematopoietic tyrosine phosphatase HePTP – biochemical, set 2, SAR follow-up (AID 449736). The class given is functional.

In test [8] the target is T2, Tyrosine-protein phosphatase non-receptor type 22. In words: PTPN22 lymphoid phosphatase activity blockers – biochemical, fluorescence intensity, uHTS (AID 1779).
The target is the same in test [9]. In words: LYP1 Fluorescent Assay using OMFP substrate for In Vitro dose response studies. [Related pubchem assays (depositor defined):AID1779, AID1784, AID435024].

Sequence of Voltage-gated N-type calcium channel alpha-1B subunit/Amyloid beta A4 precursor protein-binding family A member 1 (Q00975 whole entry): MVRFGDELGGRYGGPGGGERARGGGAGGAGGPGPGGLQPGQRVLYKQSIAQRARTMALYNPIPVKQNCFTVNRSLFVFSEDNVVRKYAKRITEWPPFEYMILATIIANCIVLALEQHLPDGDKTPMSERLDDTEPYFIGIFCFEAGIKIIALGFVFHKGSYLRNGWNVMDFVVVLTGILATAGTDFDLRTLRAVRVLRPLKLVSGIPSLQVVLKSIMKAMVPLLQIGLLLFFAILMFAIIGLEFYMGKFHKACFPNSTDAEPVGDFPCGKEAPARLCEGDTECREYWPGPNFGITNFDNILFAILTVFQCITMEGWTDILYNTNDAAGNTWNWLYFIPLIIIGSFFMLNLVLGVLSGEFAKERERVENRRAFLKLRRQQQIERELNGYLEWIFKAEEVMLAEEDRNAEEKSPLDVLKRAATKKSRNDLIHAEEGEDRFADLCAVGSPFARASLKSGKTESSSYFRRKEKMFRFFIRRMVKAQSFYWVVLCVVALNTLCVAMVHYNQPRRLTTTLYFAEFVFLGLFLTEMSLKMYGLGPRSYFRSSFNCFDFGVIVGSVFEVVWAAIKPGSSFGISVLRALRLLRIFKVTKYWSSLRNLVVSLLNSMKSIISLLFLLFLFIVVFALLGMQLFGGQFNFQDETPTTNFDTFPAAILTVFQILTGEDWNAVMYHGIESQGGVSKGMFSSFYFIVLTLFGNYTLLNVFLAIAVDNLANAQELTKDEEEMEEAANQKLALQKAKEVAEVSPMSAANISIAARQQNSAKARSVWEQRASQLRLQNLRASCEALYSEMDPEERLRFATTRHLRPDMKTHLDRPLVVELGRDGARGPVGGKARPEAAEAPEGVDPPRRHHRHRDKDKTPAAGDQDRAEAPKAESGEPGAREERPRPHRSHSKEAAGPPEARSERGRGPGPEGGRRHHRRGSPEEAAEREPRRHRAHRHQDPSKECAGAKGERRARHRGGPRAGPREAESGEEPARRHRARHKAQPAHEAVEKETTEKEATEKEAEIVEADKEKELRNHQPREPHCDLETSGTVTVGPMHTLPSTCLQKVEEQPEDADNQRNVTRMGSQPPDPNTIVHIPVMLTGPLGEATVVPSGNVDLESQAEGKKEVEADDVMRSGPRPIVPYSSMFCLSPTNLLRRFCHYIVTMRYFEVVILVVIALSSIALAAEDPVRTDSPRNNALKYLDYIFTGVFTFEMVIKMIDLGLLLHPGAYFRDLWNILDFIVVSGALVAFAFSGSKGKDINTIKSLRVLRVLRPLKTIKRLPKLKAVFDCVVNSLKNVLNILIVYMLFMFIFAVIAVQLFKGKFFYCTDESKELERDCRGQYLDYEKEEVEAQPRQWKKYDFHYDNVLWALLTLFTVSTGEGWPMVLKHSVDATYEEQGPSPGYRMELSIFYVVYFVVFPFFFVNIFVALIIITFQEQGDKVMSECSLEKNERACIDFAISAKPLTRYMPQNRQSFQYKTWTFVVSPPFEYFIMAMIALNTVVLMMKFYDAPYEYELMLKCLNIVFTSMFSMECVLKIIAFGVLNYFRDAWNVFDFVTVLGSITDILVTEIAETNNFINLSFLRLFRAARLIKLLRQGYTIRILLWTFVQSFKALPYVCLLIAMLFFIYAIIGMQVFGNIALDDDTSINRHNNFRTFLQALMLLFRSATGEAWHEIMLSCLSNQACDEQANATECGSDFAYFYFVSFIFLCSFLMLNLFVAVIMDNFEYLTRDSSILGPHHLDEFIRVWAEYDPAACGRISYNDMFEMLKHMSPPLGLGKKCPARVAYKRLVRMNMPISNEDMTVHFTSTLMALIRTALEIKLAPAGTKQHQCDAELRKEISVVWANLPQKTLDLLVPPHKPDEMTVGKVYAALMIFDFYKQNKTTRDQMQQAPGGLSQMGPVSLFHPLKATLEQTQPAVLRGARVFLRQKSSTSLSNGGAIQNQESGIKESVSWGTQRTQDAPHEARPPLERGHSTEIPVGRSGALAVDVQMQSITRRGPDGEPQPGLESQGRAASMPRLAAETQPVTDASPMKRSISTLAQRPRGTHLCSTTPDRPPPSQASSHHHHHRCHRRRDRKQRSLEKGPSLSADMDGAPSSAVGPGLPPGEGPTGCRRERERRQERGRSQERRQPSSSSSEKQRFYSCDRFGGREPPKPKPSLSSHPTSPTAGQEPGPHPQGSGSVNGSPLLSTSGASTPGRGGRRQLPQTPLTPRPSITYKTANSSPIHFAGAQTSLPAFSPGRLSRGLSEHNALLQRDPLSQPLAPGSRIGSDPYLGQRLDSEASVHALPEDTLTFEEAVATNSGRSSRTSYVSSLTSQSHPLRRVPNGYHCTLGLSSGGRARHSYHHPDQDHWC
Sequence of Voltage-gated N-type calcium channel alpha-1B subunit/Amyloid beta A4 precursor protein-binding family A member 1 (Q02410 whole entry): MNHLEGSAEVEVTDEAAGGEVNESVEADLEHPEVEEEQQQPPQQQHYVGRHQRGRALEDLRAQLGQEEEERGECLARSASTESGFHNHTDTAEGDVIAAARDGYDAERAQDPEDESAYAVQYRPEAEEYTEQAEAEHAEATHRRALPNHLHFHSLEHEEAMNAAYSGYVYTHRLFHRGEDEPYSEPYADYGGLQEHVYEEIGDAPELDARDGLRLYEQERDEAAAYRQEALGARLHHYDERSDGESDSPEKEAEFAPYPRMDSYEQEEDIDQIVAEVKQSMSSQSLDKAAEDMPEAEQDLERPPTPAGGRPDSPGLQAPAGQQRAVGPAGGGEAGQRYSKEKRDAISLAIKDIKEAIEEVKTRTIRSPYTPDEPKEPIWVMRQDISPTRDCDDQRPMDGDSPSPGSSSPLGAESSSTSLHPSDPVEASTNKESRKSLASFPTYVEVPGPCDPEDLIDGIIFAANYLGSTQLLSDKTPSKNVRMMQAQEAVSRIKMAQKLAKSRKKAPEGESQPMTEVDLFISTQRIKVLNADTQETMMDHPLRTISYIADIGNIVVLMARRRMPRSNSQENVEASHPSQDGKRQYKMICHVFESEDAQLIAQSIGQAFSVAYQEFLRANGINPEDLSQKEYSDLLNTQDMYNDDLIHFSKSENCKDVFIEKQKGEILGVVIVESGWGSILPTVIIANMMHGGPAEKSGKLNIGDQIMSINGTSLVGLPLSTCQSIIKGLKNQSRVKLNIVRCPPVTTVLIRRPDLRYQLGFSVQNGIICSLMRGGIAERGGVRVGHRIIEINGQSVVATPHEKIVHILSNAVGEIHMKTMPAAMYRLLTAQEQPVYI

For the compound `COc1ccc(Nc2ccc3c(c2)=NC2(CCCCC2)[N+]=3[O-])cc1`, in the test with INS1, the AC50 (commonly the midpoint of the concentration-response curve, whichever way the signal moves) is 1.67 µM (active). Besides, the IC50 (commonly the point on the concentration scale where inhibition reaches its midpoint) in test [1] is 12.2 µM (active). Besides, the EC50 (in general, the concentration giving half of the maximal effect) in test [2] is 8.16 µM (active).

On to `COc1ccc(/C=C2\SC(=S)N(CCC(=O)Nc3ccc(C(=O)O)cc3)C2=O)cc1OC`, for which the IC50 is 1.08 µM (active) in test [3]; 4.09 µM (active) in test [4]; > 50 µM (inactive) in [5]; 2.75 µM (active) in test [6]; 0.312 µM (active) in test [7]; 4.29 µM (active) in [8]. The IC50 in [9] was 4.66 µM (active).
